The values below are quoted from earlier work in patent US20100316580A1, “ORAL CARE PRODUCT AND METHODS OF USE THEREOF” (Colgate-Palmolive Company, priority 2008, published 2010).

Structures are written as SMILES.

Consider `Oc1cc(Cl)ccc1Oc1ccc(Cl)cc1Cl` [triclosan, 5-chloro-2-(2,4-dichlorophenoxyphenol], for which the solubility in water entry is “only slightly soluble”.
